From publication PMC8566451, “Lead optimization of novel quinolone chalcone compounds by a structure–activity relationship (SAR) study to increase efficacy and metabolic stability” (Scientific Reports, 2021) come the findings set out here.

Common to all, as to assay type: cell-based
Test [1] has as its system HeLa. In words: Sulforhodamine B (SRB) assay. The following applies: Homo sapiens, HeLa; Supplementary Table S1, SRB. The method, then:
(§1) The human MDA-MB-231, MCF7, MDA-MB-468, RPMI-8226 and HeLa cell lines were purchased from ATCC and maintained in Dulbecco's Modified Eagle Medium (DMEM)—high glucose supplemented with 10% fetal bovine serum (FBS) and antibiotics/antimycotics. Cell line authentication was carried out by Genetica DNA Laboratories (Burlington, NC) using a short tandem repeat (STR) profiling method (March 2015; July 2015; September 2016). Melanoma cells E-055 (MZ-Mel-3), E-097 (Mel-SOE), E-112 (UKRV-Mel-38), E-157 (UKRV-Mel-17) were obtained from the European Searchable Tumour Line Database (ESTDAB) cell bank (a kind gift of Dr. Graham Pawelec, Tubingen University, Germany). MDA-MB-435 was purchased from the Division of Cancer Treatment and Diagnosis Tumor Repository. All melanoma cells were cultured in Roswell Park Memorial Institute (RPMI) medium supplemented with 10% FBS and P/S/antimycotics. Primary human epidermal melanocytes from normal adult abdominal skin were purchased from ATCC (cat # PCS-200–013) and Cell Applications (cat#104-05a). The melanocytes were cultured in the media supplied by the companies.
(§2) The SRB assay was used to assess drug-induced cytotoxicity and cell proliferation as previously described[2],[33],[34] with a few modifications. Briefly, cells were plated 10,000 to 25,000 cells/cm^2 in 96-well plates (100 µl medium) and allowed to adhere overnight. The cell counts were different for each cell line to ensure optimal cell growth for the duration of the assay. Eight different concentrations of compound solutions using 2–4 times serial dilutions (100 µl). Cells were then incubated for an additional 48 h and then fixed with 100 µl ice-cold 10% (w/v) trichloroacetic acid (TCA) (without removing the cell medium, final concentration, 3.3% of TCA) and stained with 0.4% SRB (w/v) in 1% acetic acid (v/v). The relative growth rate (%) was calculated for each of the compound concentrations according to the following formula: 100 * (T − T0)/(C − T0), in which T is the optical density (OD) after exposure to a certain concentration of the compound after 48 h, T0 is the OD at the start of drug exposure (time zero) and C is the control growth. The GI50 for each compound was obtained from a non-linear sigmoidal dose–response (variable slope) curve fitted by GraphPad Prism v.4.03 software.
A general note: Sulforhodamine B stains cellular protein and so reports cell mass.

For test [2], the system named is MCF7. In words: Sulforhodamine B (SRB) assay. The note with it: Homo sapiens, MCF7; Supplementary Table S1, SRB. The method, then: as §1, §2
For test [3], the system named is MDA-MB231. In words: Sulforhodamine B (SRB) assay. The following applies: Homo sapiens, MDA-MB-231; Supplementary Table S1, SRB. The method, then:
as §1, §2

Test [4] has as its system RPMI-8226. Briefly: Sulforhodamine B (SRB) assay. The following applies: Homo sapiens, Supplementary Table S1, SRB. Here is the method: as §1, §2
Test [5] relates to cancer cell lines (breast cancer, melanoma, cervical cancer). Briefly: SRB assay, average GI50 over cancer cell lines. The note with it: average over the cell lines of Table 1 or Supplemental Table S1; read-out: average GI50. The method, then:
as §2

Broadly, the IC50 is the concentration that gives 50% inhibition. Higher therefore signals weaker potency in that assay. Broadly, the GI50 is the concentration at which growth is held to half of that of the control. For the compound `COc1cc2cc(/C=C/C(=O)c3ccccc3OC)c(=O)[nH]c2cc1OC` [CTR-24, (E)-6,7-dimethoxy-3-(3-(2-methoxyphenyl)-3-oxoprop-1-enyl)quinolin-2(1H)-one], the IC50 in test [1] came out at 1340 ± 200 nM; in test [2], 1540 ± 360 nM; in test [3], 2020 ± 10 nM; in test [4], 1040 ± 130 nM. Also, the 50% growth inhibitory concentration (GI50) in test [5] came out at 1500 nM.
Take `COc1cccc(OC)c1C(=O)/C=C/c1cc2ccccc2[nH]c1=O` [CTR-25, (E)-3-(3-(2,6-dimethoxyphenyl)-3-oxoprop-1-enyl)quinolin-2(1H)-one]: the IC50 in test [1] was found to be 1320 ± 20 nM; in test [2], 1690 ± 70 nM; in test [3], 2600 ± 180 nM; in test [4] it was 770 ± 210 nM. Also, the GI50 in test [5] stood at 1600 nM.
In the case of `COc1ccc(OC)c(C(=O)/C=C/c2cc3ccccc3[nH]c2=O)c1` [CTR-26, (E)-3-(3-(2,5-dimethoxyphenyl)-3-oxoprop-1-enyl)quinolin-2(1H)-one], the half-inhibitory concentration (IC50) in test [1] worked out at 290 ± 20 nM; in test [2], 320 ± 10 nM; in test [3], 960 ± 150 nM; in test [4], 200 ± 30 nM. Besides, in test [5], the concentration for 50% growth inhibition (GI50) was 443 nM.
Turning to `COc1ccc(C(=O)/C=C/c2cc3ccccc3[nH]c2=O)c(OC)c1` [CTR-27, (E)-3-(3-(2,4-dimethoxyphenyl)-3-oxoprop-1-enyl)quinolin-2(1H)-one], the half-maximal inhibitory concentration (IC50) in test [1] was determined as 1800 ± 270 nM; in test [2], 2200 ± 350 nM; in test [3], 2690 ± 240 nM; in test [4], 770 ± 100 nM.
Consider `COc1ccc(F)cc1C(=O)/C=C/c1cc2ccccc2[nH]c1=O` [CTR-29, (E)-3-(3-(5-fluoro-2-methoxyphenyl)-3-oxoprop-1-enyl)quinolin-2(1H)-one], for which the IC50 in test [1] stood at 90 ± 20 nM; in test [2], 100 ± 10 nM; in test [3], 210 ± 20 nM; in test [4], 70 ± 10 nM. Besides, the concentration for 50% growth inhibition (GI50) in test [5] amounted to 118 nM.
In the case of `COc1cc(F)ccc1C(=O)/C=C/c1cc2ccccc2[nH]c1=O` [CTR-30, (E)-3-(3-(4-fluoro-2-methoxyphenyl)-3-oxoprop-1-enyl)quinolin-2(1H)-one], the IC50 in test [1] was determined as 1500 ± 130 nM; in test [2], 1470 ± 150 nM; in test [3], 1420 ± 80 nM; in test [4], 200 ± 30 nM.
On to `COc1ccc(OC)c(C(=O)/C=C/c2cc3cc(OC)ccc3[nH]c2=O)c1` [CTR-34, (E)-3-(3-(2,5-dimethoxyphenyl)-3-oxoprop-1-enyl)-6-methoxyquinolin-2(1H)-one], for which the IC50 in test [1] is 640 ± 30 nM; in test [2], 850 ± 60 nM; in test [3], 840 ± 80 nM; in test [4], 260 ± 20 nM. For the same compound, in test [5], the 50% growth inhibitory concentration (GI50) was 648 nM.
In the same order, the values of `COc1ccc(C(=O)/C=C/c2cc3cc(OC)ccc3[nH]c2=O)c(OC)c1` [CTR-35, (E)-3-(3-(2,4-dimethoxyphenyl)-3-oxoprop-1-enyl)-6-methoxyquinolin-2(1H)-one] are 2070 ± 250 nM, 2120 ± 360 nM, 2350 ± 260 nM, 1320 ± 100 nM and 2000 nM.
For `COc1ccc2[nH]c(=O)c(/C=C/C(=O)c3ccc(OC(F)(F)F)cc3OC)cc2c1` [CTR-36, (E)-6-methoxy-3-(3-(2-methoxy-4-(trifluoromethoxy)phenyl)-3-oxoprop-1-enyl)quinolin-(1H)-one], in that order: 1110 ± 130 nM, 1230 ± 80 nM, 730 ± 60 nM, 150 ± 20 nM and 805 nM.
With `COc1ccc2[nH]c(=O)c(/C=C/C(=O)c3cc(F)ccc3OC)cc2c1` [CTR-37, (E)-3-(3-(5-fluoro-2-methoxyphenyl)-3-oxoprop-1-enyl)-6-methoxyquinolin-2(1H)-one], the IC50 in test [1] turned out to be 140 ± 30 nM; in test [2], 320 ± 40 nM; in test [3], 390 ± 90 nM; in test [4], 100 ± 30 nM.
